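Where inhibition never reached the appropriate level, the endpoint shown equals the highest concentration tested. Otherwise, values were interpolated linearly from a five-concentration, 48-hour dose response in 96-well plates. GI50 = concentration required for 50% inhibition of growth. TGI denotes the concentration required for complete inhibition of growth.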
Columns and labels:
Assay in all cases: NCI anticancer screen, dose series, 48 h
786-0 renal = tested on: 786-0 renal
A549 NSCLC = tested on: A549 NSCLC
ACHN renal = tested on: ACHN renal
BT-549 breast = tested on: BT-549 breast
CAKI-1 renal = tested on: CAKI-1 renal
COLO 205 colon = tested on: COLO 205 colon
DU-145 prostate = tested on: DU-145 prostate
EKVX NSCLC = tested on: EKVX NSCLC
HCT-116 colon = tested on: HCT-116 colon
HCT-15 colon = tested on: HCT-15 colon
HL-60(TB) leukemia = tested on: HL-60(TB) leukemia
HOP-62 NSCLC = tested on: HOP-62 NSCLC
HS 578T breast = tested on: HS 578T breast
HT29 colon = tested on: HT29 colon
IGROV1 ovarian = tested on: IGROV1 ovarian
K-562 leukemia = tested on: K-562 leukemia
KM12 colon = tested on: KM12 colon
LOX IMVI melanoma = tested on: LOX IMVI melanoma
MCF7 breast = tested on: MCF7 breast
MDA-MB-231 breast = tested on: MDA-MB-231 breast
MDA-MB-435 = tested on: MDA-MB-435
MOLT-4 leukemia = tested on: MOLT-4 leukemia
NCI-H226 lung = tested on: NCI-H226 lung
NCI-H23 lung = tested on: NCI-H23 lung
NCI-H460 lung = tested on: NCI-H460 lung
NCI-H522 lung = tested on: NCI-H522 lung
NCI/ADR-RES ovarian = tested on: NCI/ADR-RES ovarian
OVCAR-3 ovarian = tested on: OVCAR-3 ovarian
OVCAR-5 ovarian = tested on: OVCAR-5 ovarian
OVCAR-8 ovarian = tested on: OVCAR-8 ovarian
PC-3 prostate = tested on: PC-3 prostate
RPMI-8226 leukemia = tested on: RPMI-8226 leukemia
RXF 393 renal = tested on: RXF 393 renal
SF-268 CNS = tested on: SF-268 CNS
SF-295 CNS = tested on: SF-295 CNS
SF-539 CNS = tested on: SF-539 CNS
SK-MEL-2 melanoma = tested on: SK-MEL-2 melanoma
SK-MEL-28 melanoma = tested on: SK-MEL-28 melanoma
SK-MEL-5 melanoma = tested on: SK-MEL-5 melanoma
SN12C renal = tested on: SN12C renal
SNB-19 CNS = tested on: SNB-19 CNS
SNB-75 CNS = tested on: SNB-75 CNS
SR leukemia = tested on: SR leukemia
SW-620 colon = tested on: SW-620 colon
TK-10 renal = tested on: TK-10 renal
U251 CNS = tested on: U251 CNS
UACC-257 melanoma = tested on: UACC-257 melanoma
UACC-62 melanoma = tested on: UACC-62 melanoma
UO-31 renal = tested on: UO-31 renal

CCCCOC(=O)N1CCN(/[N+]([O-])=N/Oc2ccc([N+](=O)[O-])cc2[N+](=O)[O-])CC1
GI50 (786-0 renal): 2470 nM | TGI (786-0 renal): 5.67 µM | GI50 (A549 NSCLC): 21.1 µM | TGI (A549 NSCLC): 64.2 µM | GI50 (ACHN renal): 2530 nM | TGI (ACHN renal): 7.19 µM | GI50 (BT-549 breast): 4.87 µM | TGI (BT-549 breast): 17.7 µM | GI50 (CAKI-1 renal): 3.16 µM | TGI (CAKI-1 renal): 6.77 µM | GI50 (COLO 205 colon): 2630 nM | TGI (COLO 205 colon): 5.99 µM | GI50 (DU-145 prostate): 3.35 µM | TGI (DU-145 prostate): 12 µM | GI50 (EKVX NSCLC): 8.01 µM | TGI (EKVX NSCLC): 23.5 µM | GI50 (HCT-116 colon): 2070 nM | TGI (HCT-116 colon): 3.53 µM | GI50 (HCT-15 colon): 3.99 µM | TGI (HCT-15 colon): 21.4 µM | GI50 (HL-60(TB) leukemia): 6.85 µM | TGI (HL-60(TB) leukemia): > 100 µM | GI50 (HOP-62 NSCLC): 6.28 µM | TGI (HOP-62 NSCLC): 23.2 µM | GI50 (HS 578T breast): 20.9 µM | TGI (HS 578T breast): > 100 µM | GI50 (HT29 colon): 4.67 µM | TGI (HT29 colon): > 100 µM | GI50 (IGROV1 ovarian): 2170 nM | TGI (IGROV1 ovarian): 6.44 µM | GI50 (K-562 leukemia): 5.97 µM | TGI (K-562 leukemia): > 100 µM | GI50 (KM12 colon): 3.65 µM | TGI (KM12 colon): 14.5 µM | GI50 (LOX IMVI melanoma): 2270 nM | TGI (LOX IMVI melanoma): 5.06 µM | GI50 (MCF7 breast): 3.31 µM | TGI (MCF7 breast): 8.57 µM | GI50 (MDA-MB-231 breast): 2310 nM | TGI (MDA-MB-231 breast): 5.63 µM | GI50 (MDA-MB-435): 4.6 µM | TGI (MDA-MB-435): 16.4 µM | GI50 (MOLT-4 leukemia): > 100 µM | TGI (MOLT-4 leukemia): > 100 µM | GI50 (NCI-H226 lung): 2540 nM | TGI (NCI-H226 lung): 5.95 µM | GI50 (NCI-H23 lung): 4.6 µM | TGI (NCI-H23 lung): 19.5 µM | GI50 (NCI-H460 lung): 4.94 µM | TGI (NCI-H460 lung): > 100 µM | GI50 (NCI-H522 lung): 2910 nM | TGI (NCI-H522 lung): > 100 µM | GI50 (NCI/ADR-RES ovarian): 3.43 µM | TGI (NCI/ADR-RES ovarian): > 100 µM | GI50 (OVCAR-3 ovarian): 1680 nM | TGI (OVCAR-3 ovarian): 4.12 µM | GI50 (OVCAR-5 ovarian): 3.53 µM | TGI (OVCAR-5 ovarian): 11.8 µM | GI50 (OVCAR-8 ovarian): 25.5 µM | TGI (OVCAR-8 ovarian): > 100 µM | GI50 (PC-3 prostate): 14 µM | TGI (PC-3 prostate): 30.8 µM | GI50 (RPMI-8226 leukemia): 2300 nM | TGI (RPMI-8226 leukemia): 5.47 µM | GI50 (RXF 393 renal): 17.6 µM | TGI (RXF 393 renal): 40.4 µM | GI50 (SF-268 CNS): 6.42 µM | TGI (SF-268 CNS): 25.4 µM | GI50 (SF-295 CNS): 28.6 µM | TGI (SF-295 CNS): > 100 µM | GI50 (SF-539 CNS): 2560 nM | TGI (SF-539 CNS): 6.11 µM | GI50 (SK-MEL-2 melanoma): 4.55 µM | TGI (SK-MEL-2 melanoma): 21.8 µM | GI50 (SK-MEL-28 melanoma): 13.7 µM | TGI (SK-MEL-28 melanoma): 35.7 µM | GI50 (SK-MEL-5 melanoma): 4.91 µM | TGI (SK-MEL-5 melanoma): 19.8 µM | GI50 (SN12C renal): 11 µM | TGI (SN12C renal): 31.5 µM | GI50 (SNB-19 CNS): 15.1 µM | TGI (SNB-19 CNS): 36.8 µM | GI50 (SNB-75 CNS): 21.1 µM | TGI (SNB-75 CNS): 37.9 µM | GI50 (SR leukemia): > 100 µM | TGI (SR leukemia): > 100 µM | GI50 (SW-620 colon): 3.38 µM | TGI (SW-620 colon): > 100 µM | GI50 (TK-10 renal): 10 µM | TGI (TK-10 renal): 21.8 µM | GI50 (U251 CNS): 5.85 µM | TGI (U251 CNS): 21.8 µM | GI50 (UACC-257 melanoma): 13.4 µM | TGI (UACC-257 melanoma): 29 µM | GI50 (UACC-62 melanoma): 13.6 µM | TGI (UACC-62 melanoma): 26.8 µM | GI50 (UO-31 renal): 3.84 µM | TGI (UO-31 renal): 41.3 µM

Reference: PubChem BioAssay (NCI)
